These results are taken from patent US5780642A, “Imidazole derivatives as therapeutic agents” (KNOLL Aktiengesellschaft, priority 1993, dated 1998).

Structures can show the parent of a compound that is named as a salt. Where two headings read alike, the source gives them in different places.

The term IC50 denotes the point on the concentration scale where inhibition reaches its midpoint.

The subject of data set [1] is platelet aggregation. As to conditions: cited from earlier work.
Data set [2] concerns lymphocyte proliferation (BALB/c responder and C57BL/6 stimulator spleen cells). Put plainly: Test C: Mixed Lymphocyte Reaction. The format is cell-based, mouse (BALB/c and C57BL/6). To be noted: Mus musculus, final concentration, read-out: IC50 (50% inhibition of the immune response). Here is the method:
A mixed lymphocyte reaction (MLR) occurs when lymphocytes from two genetically dissimilar individuals, or inbred strains of mice are cultured together. An MLR results in the activation and proliferation of lymphocytes, which is measured by the incorporation of radiolabelled thymidine into the cellular DNA synthesised during cell division. A `one-way` MLR is used to determine the immunosuppressive activity of test compounds in vitro. In this reaction one population of spleen cells serves as the stimulator cells and is treated with mitomycin C to prevent cell division. Spleen cells from a second allogeneic population (responder cells) are untreated and when mixed with the stimulator cells are able to undergo division which is measured. The degree of proliferation is measured in the presence and absence of test compound to assess the immunosuppressive activity of the compound. The techniques for carrying out lymphocyte proliferation assays including MLRs are well known, eg Bradley, pages 156-166, in Mishell and Shiigi, Eds. Selected Methods in Cellular Immunology (Freeman, San Francisco, 1980); and Battisto et al, methods in Enzymology 1987; 150: 83-91. Various slight modifications of these techniques are in use and that used herein is described in Gibb, Webber and Bowen, J Immunological Methods 1985; 81: 107-113. The immunomodulant activity of the preferred compounds was determined in a mixed lymphocyte reaction (Test C) in the following manner: Mixed Lymphocyte Reaction Cell suspensions obtained from the spleens of female BALB/c and C57BL/6 strain mice of between 6 and 9 weeks of age were used as sources of responder and stimulator cells respectively. The mice were killed using a rising concentration of CO2 and the spleens removed aseptically and teased using a scalpel and forceps to produce a single cell suspension in Hanks balanced salt solution (HBSS). The suspensions were filtered through cell strainers (Falcon), sedimented by centrifugation and resuspended in Tris-buffered ammonium chloride pH 7.2 (medium D) to lyse the erythrocytes. The cells were sedimented again and washed twice in HBSS before resuspending in complete RPMI 1640 tissue culture medium (medium E). The C57BL/6 cells were resuspended to 9 mls per spleen and a solution of mitomycin C at 400 μg/ml in medium E added to give a final concentration of 40 μg/ml. After incubation of the C57BL/6 cells at 37° C. for 30 minutes in an atmosphere of 5% CO2 and 95% air, the cells were sedimented and washed 3 times in medium E. Both cell suspensions were diluted in medium E to 5×10^6 cells/ml. 100 μl of each of the responder and stimulator cell suspensions were aliquoted into the wells of 96 well flat bottom microtitre plates containing 50 μl of test compound at an appropriate dilution (initially 50 μM diluted in medium E from a stock solution at 100 mM in dimethyl sulphoxide) giving a final test compound concentration of 10 μM (final dilution). […] After four days of culture at 37° C. in a humidified atmosphere of 5% CO2 and 95% air, 1 μCi of tritiated thymidine in 20 μl of medium E was added to each well and the plates incubated for a further 24 hours. […] The filters were transferred to vials to which 2 mls of Packard Emulsifier-Safe scintillation fluid was added and the radioactivity from the incorporated thymidine was counted in a Packard liquid scintillation counter. […] The data were analysed to determine the percentage inhibition of lymphocyte proliferation by the test compound. […]

The test system of data set [3] is Carrageenan-induced rat paw oedema. Put plainly: Test B: Carrageenan-induced rat paw oedema test. The class given is in vivo. As to conditions: 100 mg/kg oral; active = 20% or greater inhibition of paw oedema in at least two out of three tests. Here is the method: Test B was carried out in the following way: Carrageenan-induced rat paw oedema test Female rats, weight range 125-150 g were fasted overnight. One of the hind legs of each animal was marked with a line at the connection between the cuboid/navicular and calcaneus/talus bones. Groups of six rats were orally dosed at 10 ml/kg, in random order, with a given dose of the test compound given as a solution or suspension in 10% (w/v) aqueous acacia solution. One hour after dosing, 0.1 ml of 1% (w/v) sterile carrageenan λ in normal saline was injected deeply into the plantar surface of the marked hind foot of each rat. The volume of the foot (up to the marked line) was measured immediately after injection using duplicate water displacement readings. Three hours after injection the foot volume was measured again and the percentage increase in foot volume relative to the initial reading was calculated. The increase in foot volume (i.e. the degree of oedema) in drug treated animals when compared with that in the drug untreated control gave the degree of inhibition of paw oedema by the drug. Compounds were considered to be active in this test if they produced a 20% or greater inhibition of paw oedema in at least two out of three tests after oral dosing at 100 mg/kg. Statistical significance was assessed using the Student's t test for single dose studies and Dunnett's test for multiple dose studies. More advantageous compounds were active in both Tests A and B.
For orientation: In the carrageenan paw model, swelling and tenderness develop within hours.

The subject of data set [4] is Zymosan Stimulated Macrophages (arachidonic acid release). Put plainly: Test A: Inhibition of Arachidonic Acid Release from Zymosan Stimulated Macrophages. The class given is cell-based, mouse (female MF1 mice). To be noted: Mus musculus, Macrophage, read-out: Test A IC50. In outline: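 Peritoneal macrophages from female MF1 mice, labelled overnight with [3H]-arachidonic acid (1.6 μCi/ml), then exposed to compound 24 h unstimulated and re-dosed with zymosan stimulus for 5 h at 37 °C. Released radioactivity counted by scintillation; spontaneous release subtracted; IC50 from six concentrations (1–100 μM), quadruplicate wells.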

For data set [5], the system named is Carrageenan-induced pleurisy (migrating leukocytes). Put plainly: Carrageenan-induced pleurisy in rats. The class given is in vivo. To be noted: rat, p.o. at time of challenge and 24h and 48h thereafter; 10 mg/kg. The procedure: The most advantageous compounds of formula I were active in Tests A and B and also in the following test. Carrageenan-induced pleurisy in rats was carried out as described by Ackerman et al. J. Pharmacol. Exp. Therap. 1980, 215, 588-595. Migrating leukocytes were harvested by lavage of the thoracic cavity 72h after injection of 0.3 ml 1% λcarrageenan in sterile isotonic saline. Test compounds were administered p.o. at the time of challenge and 24h and 48 h thereafter.

For data set [6] the following is noted: Indian Journal of Pharmacology 1973, 5, 428 / Pfl. Krankh. 1975, 3, 149; cited from earlier work.
The conditions of data set [7]: cited from earlier work.
Where [8] appears, read: inhibition of arachidonic acid release, zymosan stimulated mouse peritoneal macrophages, tested at 100, 50, 20, 10, 5 and 1 μM, ≤100 μM considered active.

On to `CC(CCn1ccnc1)NCc1ccccc1` (stereo not shown) [Compound A], for which the “inhibitory effect on platelet aggregation in vitro” value in data set [1] is “inhibitory effect on platelet aggregation in vitro”.

As to `Cc1nccn1CCCNCCOc1ccc(Cl)cc1` [Example 8, N-[2-(4-Chlorophenoxy)ethyl]-3-(2-methylimidazol-1-yl)propylamine], the IC50 was found to be 2.4 µM in data set [2] and 14 µM in data set [4] (setting [8]). For the same molecule, in data set [3], the “activity in Test B (inhibition of paw oedema)” value was “active”.

As for `Clc1ccc(OCCNCCCCCn2ccnc2)cc1` [Example 16, N-[2-(4-chlorophenoxy)ethyl]-5-(imidazol-1-yl)pentylamine dihydrochloride hemihydrate], the figures for the IC50 in data set [2] and in data set [4] (setting [8]) were 2.8 µM and 7 µM, respectively. Also, the “activity in carrageenan-induced pleurisy at 10 mg/kg” value in data set [5] is on record as “active”.

As for `CC(C)(COc1ccc(Cl)cc1)NCCCn1ccnc1.Cl.Cl` [Example 17, N-[2-(4-chlorophenoxy)-1,1-dimethylethyl]-3-(imidazol-1-yl)propylamine dihydrochloride], the IC50 amounted to 5.9 µM in data set [2] and 12 µM in data set [4] (setting [8]). The “activity in carrageenan-induced pleurisy at 10 mg/kg” value in data set [5] is given as “active”.

Take `CC(C)(CSc1ccc(Cl)cc1)NCCCn1ccnc1` [Example 19, N-[2-(4-Chlorophenylthio)-1,1-dimethylethyl]-3-(imidazol-1-yl)propylamine dihydrochloride]: the IC50 in data set [2] came to 1.7 µM; in data set [4], 8 µM.

In the case of `CC(C)(NCCCc1ncc[nH]1)c1ccccc1` [Example 87, 3-(imidazol-2-yl)-N-(1-methyl-1-phenylethyl)propylamine], the values for the IC50 in data set [2] and in data set [4] (setting [8]) were 5.8 µM and 25 µM, respectively.

For the molecule `CCC(NCC(C)N1CCOCC1)c1ccc(Cl)c(Cl)c1` (stereo not drawn) [N-[2-(4-Morpholino)propyl]-α-ethyl-3,4-dichlorobenzylamine], in data set [6], the “antiinflammatory activity (alleged)” value is “alleged to have antiinflammatory activity”. The “undesirable side-effects in mice” value in data set [7] is “wide range of undesirable side-effects in mice”.
